From patent US12419305B2, “Antimicrobial compositions” (Firmenich SA, priority 2018, dated 2025) come the findings set out here.

One assay deals with E. coli ATCC 10536. The assay can be described thus: BCT test (bacterial contact time), 45 s, log reduction / effect fraction; CI by Compusyn. Type of assay: cell-based, Escherichia coli. The following applies: 45 s, in 20% EtOH. The protocol:
(§1) E. coli, S. aureus, P. aeruginosa, and S. enterica: Separate suspensions of the E. coli ATCC 10536 strain, S. aureus ATCC 6538 strain, Pseudomonas aeruginosa ATCC 15442 strain, and the Salmonella enterica ATCC 10708 strain were prepared as follows: Stock cultures (stored at −80° C.) were thawed and sub-cultured onto Tryptic Soy Agar (TSA) agar plate media, and incubated at 37° C. for 24 h to obtain single colonies. Single colonies of the primary cultures were streaked onto TSA plates and incubated at 37° for 24 h to generate secondary cultures. Single colonies of secondary cultures picked and used to inoculate into 50 mL of TSB broth. The inoculated TSB broth was incubated at 37° C. at 180 rpm for 18 h. Aliquots (0.5 ml) of the 18 h culture were inoculated into 50 ml of fresh TSB broth, and incubated at 37° C. at 180 rpm for 2-3 hours. When the OD600 nm value of the broth reached 1-2, cells were harvested by centrifugation at 5000 rpm for 10 min, and then resuspended in fresh TSB broth at a concentration of 1-5×10^8 CFU/mL. These suspensions were used as the bacterial suspensions for the BCT test.
(§2) BCT Test: Test compositions at a range of concentrations (either combinations of more than one perfume ingredient, and comparative compositions comprising the single perfume ingredients) were prepared in ethanol. Five replicates of each test composition were added into 96-well microtiter plates (120 μl per well), with row B containing control compositions containing the ethanol solution alone. 120 μl of bacterial cell suspensions at a concentration of approximately 1×10^8 bacteria per mL (as prepared above) were added to each well of the microtiter plate. The bacterial suspensions were incubated with the test solutions for 45, 60, or 120 seconds. Following the incubation of the bacterial suspensions with the test solutions, serial dilutions of the bacterial suspensions were generated (three serial 1:10 dilutions, followed by 17 serial 1:2 dilutions), in multiwell microtiter plates.
(§3) Each plate was sealed and incubated at 37° C. under agitation (180 rpm). After incubation, the turbidity of the wells (OD600 nm) was determined using a Tecan microplate reader. Turbid wells were regarded as positive growth, due to the presence of viable cells. The total number of viable cells (log CFU) for each sample was calculated. And the log reduction for each test composition at the final concentration (dose) was calculated against the control sample of the ethanol solution.
(§4) Determination of Synergy via the Combination Index (CI): The CI was calculated using Compusyn software (ComboSyn, Inc., as created by Dr. Dorothy Chou in 2005), according to the manufacturer's instructions. The concentration of each test composition (combinations of more than one perfume ingredient, and comparative compositions comprising the single perfume ingredients used to generate the combination) and their corresponding effect fraction was entered, and the corresponding CI calculated.
(§5) When the calculated CI values were less than 0.9, the combination of perfume ingredients was regarded as having synergistic effect. When the calculated CI was between 1.0 a 0.9, the combination of perfume ingredients was regarded as having an additive effect. When the calculated CI was greater than 1.0, the combination of perfume ingredients was regarded as having an antagonistic effect.

A further assay deals with S. aureus ATCC 6538. The assay can be described thus: BCT test (bacterial contact time), 60 s, log reduction / effect fraction; CI by Compusyn. The following applies: BCT 60 s, in 25% EtOH. Type of assay: cell-based, Staphylococcus aureus. The method, then: as §1, §2, §3, §4, §5
Assay [1] concerns Salmonella enterica ATCC 10708. The assay is described as above. Type of assay: cell-based. The following applies: BCT 60 s, in 25% EtOH. The protocol: as §1, §2, §3, §4, §5

For the compound `OC/C=C/c1ccccc1` [Cinnamic Alcohol Ord], the Effect fraction in the assay with E. coli ATCC 10536 (dose 0.200 % w/v) was 0.00; in the assay on E. coli ATCC 10536 (dose 0.250 % w/v), 0.02; in the assay with E. coli ATCC 10536 (dose 0.300 % w/v), 0.17; in the assay with E. coli ATCC 10536 (dose 0.350 % w/v) it was 0.52; with E. coli ATCC 10536 (dose 0.400 % w/v), 1.00. Besides, the Log reduction with E. coli ATCC 10536 (dose 0.200 % w/v) was 0; in the assay with E. coli ATCC 10536 (dose 0.250 % w/v) it was 0.2; in the assay with E. coli ATCC 10536 (dose 0.300 % w/v) it was 1.3; in the assay with E. coli ATCC 10536 (dose 0.350 % w/v) it was 4.0; in the assay with E. coli ATCC 10536 (dose 0.400 % w/v) it was 7.6.

As for `OCc1ccccc1` [Benzyl alcohol], the log reduction at 1 % strength in the assay on E. coli ATCC 10536 (Escherichia coli, ATCC10536, 45 s, dose 1.000 % w/v) came to 0.2. Also, in the assay on E. coli ATCC 10536 (Escherichia coli, ATCC10536, 45 s, dose 1.200 % w/v), the log reduction at 1.2 % strength turned out to be 2. Further, the log reduction at 1.3 % strength in the assay with E. coli ATCC 10536 (Escherichia coli, ATCC10536, 45 s, dose 1.300 % w/v) was determined as 4.3. For the same compound, the log reduction at 1.4 % strength with E. coli ATCC 10536 (Escherichia coli, ATCC10536, 45 s, dose 1.400 % w/v) was 5.9. In the assay with E. coli ATCC 10536 (Escherichia coli, ATCC10536, 45 s, dose 1.600 % w/v), the log reduction at 1.6 % strength was 7.3.

On to `CC(=O)OC(C)c1ccccc1` (stereo not drawn) [Styrallyl Acetate], for which the Effect fraction in the assay with E. coli ATCC 10536 (dose 0.120 % w/v) is 0.03; in the assay with E. coli ATCC 10536 (dose 0.140 % w/v), 0.09; with E. coli ATCC 10536 (dose 0.160 % w/v), 0.37; in the assay with E. coli ATCC 10536 (dose 0.200 % w/v), 1.00; in the assay on E. coli ATCC 10536 (dose […] w/v), 0.86. Moreover, the Log reduction in the assay with E. coli ATCC 10536 (dose 0.120 % w/v) was 0.3; in the assay with E. coli ATCC 10536 (dose 0.140 % w/v), 0.7; in the assay on E. coli ATCC 10536 (dose 0.160 % w/v), 2.7; in the assay on E. coli ATCC 10536 (dose 0.200 % w/v), 7.4; with E. coli ATCC 10536 (dose […] w/v), 6.4.

Take `OCCc1ccccc1` [PEA]: the Effect fraction in the assay with E. coli ATCC 10536 (dose 0.650 % w/v) was found to be 0.00; in the assay with E. coli ATCC 10536 (dose 0.700 % w/v) it was 0.01; in the assay with E. coli ATCC 10536 (dose 0.750 % w/v), 0.11; in the assay with E. coli ATCC 10536 (dose 0.800 % w/v), 0.16; in the assay with E. coli ATCC 10536 (dose 0.850 % w/v), 0.60. The Log reduction came to 0.0 in the assay with E. coli ATCC 10536 (dose 0.650 % w/v); 0.1 in the assay on E. coli ATCC 10536 (dose 0.700 % w/v); 0.8 in the assay with E. coli ATCC 10536 (dose 0.750 % w/v); 1.2 in the assay with E. coli ATCC 10536 (dose 0.800 % w/v); 4.3 in the assay on E. coli ATCC 10536 (dose 0.850 % w/v).

In the case of `CCC(CC(C)CC)=NO` (stereo not drawn) [Stemone], the Effect fraction in the assay with S. aureus ATCC 6538 (Dose 0.1 % w/v) was found to be 0.050; with S. aureus ATCC 6538 (Dose 0.120 % w/v) it was 0.220; in the assay on S. aureus ATCC 6538 (Dose 0.140 % w/v), 0.660; in the assay with S. aureus ATCC 6538 (Dose 0.15 % w/v) it was 0.890; in the assay on S. aureus ATCC 6538 (Dose 0.160 % w/v), 1.000. The Log reduction in the assay with S. aureus ATCC 6538 (Dose 0.1 % w/v) is on record as 0.4; with S. aureus ATCC 6538 (Dose 0.120 % w/v), 1.6; with S. aureus ATCC 6538 (Dose 0.140 % w/v), 4.8; in the assay on S. aureus ATCC 6538 (Dose 0.15 % w/v) it was 6.4; in the assay with S. aureus ATCC 6538 (Dose 0.160 % w/v), 7.2.

With `O=C/C=C/c1ccccc1` [Cinnamic aldehyde], the log reduction at 0.25 % strength with S. aureus ATCC 6538 (Staphylococcus aureus, ATCC6538, 1 min, Dose 0.25 % w/v) turned out to be 0.3. Besides, the log reduction at 0.3 % strength with S. aureus ATCC 6538 (Staphylococcus aureus, ATCC6538, 1 min, Dose 0.3 % w/v) stood at 2.9. For the same compound, the log reduction at 0.325 % strength with S. aureus ATCC 6538 (Staphylococcus aureus, ATCC6538, 1 min, Dose 0.325 % w/v) was 4.2. The log reduction at 0.35 % strength with S. aureus ATCC 6538 (Staphylococcus aureus, ATCC6538, 1 min, Dose 0.35 % w/v) is 6.5. Also, in the assay on S. aureus ATCC 6538 (Staphylococcus aureus, ATCC6538, 1 min, Dose 0.4 % w/v), the log reduction at 0.4 % strength amounted to 7.1.

Consider `COC(C)(C)CCCC(C)C=O` (stereo not drawn) [Methoxymelonal], for which the Effect fraction was 0.020 in the assay with S. aureus ATCC 6538 (Dose 0.600 % w/v); 0.110 with S. aureus ATCC 6538 (Dose 0.800 % w/v); 0.360 with S. aureus ATCC 6538 (Dose 0.900 % w/v); 0.700 with S. aureus ATCC 6538 (Dose 1.000 % w/v); 0.970 in the assay on S. aureus ATCC 6538 (Dose 1.200 % w/v). Besides, the Log reduction stood at 0.1 with S. aureus ATCC 6538 (Dose 0.600 % w/v); 0.8 in the assay with S. aureus ATCC 6538 (Dose 0.800 % w/v); 2.6 in the assay with S. aureus ATCC 6538 (Dose 0.900 % w/v); 5.1 with S. aureus ATCC 6538 (Dose 1.000 % w/v); 7.1 with S. aureus ATCC 6538 (Dose 1.200 % w/v).

As to `COc1ccc(C=O)cc1` [Aldehyde Anisique], the Effect fraction in assay [1] (Dose 0.4 % w/v) amounted to 0.190; in assay [1] (Dose 0.42 % w/v), 0.370; in assay [1] (Dose 0.46 % w/v), 0.670; in assay [1] (Dose 0.5 % w/v) it was 1.000. Further, the Log reduction is 1.5 in assay [1] (Dose 0.4 % w/v), 2.8 in assay [1] (Dose 0.42 % w/v), 5.2 in assay [1] (Dose 0.46 % w/v) and 7.7 in assay [1] (Dose 0.5 % w/v).

For `CCOC(=O)C=Cc1ccccc1` [Ethyl Cinnamate], the log reduction at 0.03 % strength in the assay on E. coli ATCC 10536 (Escherichia coli, ATCC10536, 45 s, dose 0.030 % w/v) worked out at 1. In the assay with E. coli ATCC 10536 (Escherichia coli, ATCC10536, 45 s, dose 0.035 % w/v), the log reduction at 0.035 % strength came out at 3.7. Moreover, the log reduction at 0.04 % strength in the assay with E. coli ATCC 10536 (Escherichia coli, ATCC10536, 45 s, dose 0.040 % w/v) was found to be 5.4. Also, in the assay on E. coli ATCC 10536 (Escherichia coli, ATCC10536, 45 s, dose 0.045 % w/v), the log reduction at 0.045 % strength turned out to be 7.3.
